Measurements taken from patent US10273236B2, “Macrocyclic factor XIa inhibitors bearing heterocyclic groups” (Bristol-Myers Squibb Company, priority 2014, dated 2019).
Where a name gives a salt, the structure may show the parent alone.

How the values were obtained:
[1] = molecular target: T1, purified human plasma kallikrein (Homo sapiens, UniProt P03952); test: Plasma kallikrein inhibition assay, chromogenic substrate S-2302 (Ki); assay type: biochemical
T1 construct: Plasma prekallikrein is a zymogen of a trypsin-like serine protease; purchased Enzyme Research Laboratories
In short: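 Purified human plasma kallikrein (200 pM final) with chromogenic substrate S-2302 at 0.00008-0.0004 M in 0.1 M sodium phosphate pH 7.5, 0.1-0.2 M NaCl, 0.5% PEG 8000. Velocities measured over 20-180 min with and without inhibitor; Ki derived assuming competitive inhibition, e.g. Ki=IC50/(1+S/Km).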

[2] = molecular target: T2, purified human Factor XIa (Homo sapiens, UniProt P03951); test: Factor XIa inhibition assay, chromogenic substrate S-2366 (Ki); assay type: biochemical
T2 construct: purchased Haematologic Technologies
In short: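 Purified human FXIa (25-200 pM final) with S-2366 (0.0002-0.001 M) in 50 mM HEPES pH 7.4, 145 mM NaCl, 5 mM KCl, 0.1% PEG 8000. Velocities of absorbance change measured over 20-180 min with inhibitor present; Ki calculated for competitive inhibition from rates or IC50 via Ki=IC50/(1+S/Km).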

T1 sequence (P03952 391-638 limits assumed): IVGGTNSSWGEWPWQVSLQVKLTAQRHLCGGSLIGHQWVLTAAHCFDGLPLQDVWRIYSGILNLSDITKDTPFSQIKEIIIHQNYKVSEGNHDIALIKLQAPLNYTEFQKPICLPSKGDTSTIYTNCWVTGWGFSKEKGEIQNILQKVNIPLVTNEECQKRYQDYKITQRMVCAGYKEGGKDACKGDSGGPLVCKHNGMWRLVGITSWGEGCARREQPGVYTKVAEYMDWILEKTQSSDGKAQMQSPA
T1 sequence (P03952 20-390 partner limits assumed): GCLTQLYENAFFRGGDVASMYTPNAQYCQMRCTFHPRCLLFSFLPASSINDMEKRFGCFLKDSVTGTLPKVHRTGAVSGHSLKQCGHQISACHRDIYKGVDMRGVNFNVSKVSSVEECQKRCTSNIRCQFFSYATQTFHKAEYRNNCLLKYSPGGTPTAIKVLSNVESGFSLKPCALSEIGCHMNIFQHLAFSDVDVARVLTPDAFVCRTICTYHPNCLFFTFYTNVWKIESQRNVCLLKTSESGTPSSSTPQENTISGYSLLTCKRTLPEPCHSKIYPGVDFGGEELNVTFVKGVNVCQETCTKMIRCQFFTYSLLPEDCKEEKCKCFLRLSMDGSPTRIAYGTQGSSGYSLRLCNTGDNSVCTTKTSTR
T2 sequence (P03951 388-625 limits assumed): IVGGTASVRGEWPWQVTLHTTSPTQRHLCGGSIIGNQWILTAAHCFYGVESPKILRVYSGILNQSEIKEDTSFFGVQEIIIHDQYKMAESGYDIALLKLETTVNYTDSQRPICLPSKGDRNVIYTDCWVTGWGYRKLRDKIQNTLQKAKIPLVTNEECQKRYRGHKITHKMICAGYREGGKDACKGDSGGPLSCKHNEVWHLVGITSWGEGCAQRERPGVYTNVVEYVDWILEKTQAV
T2 sequence (P03951 19-387 partner limits assumed): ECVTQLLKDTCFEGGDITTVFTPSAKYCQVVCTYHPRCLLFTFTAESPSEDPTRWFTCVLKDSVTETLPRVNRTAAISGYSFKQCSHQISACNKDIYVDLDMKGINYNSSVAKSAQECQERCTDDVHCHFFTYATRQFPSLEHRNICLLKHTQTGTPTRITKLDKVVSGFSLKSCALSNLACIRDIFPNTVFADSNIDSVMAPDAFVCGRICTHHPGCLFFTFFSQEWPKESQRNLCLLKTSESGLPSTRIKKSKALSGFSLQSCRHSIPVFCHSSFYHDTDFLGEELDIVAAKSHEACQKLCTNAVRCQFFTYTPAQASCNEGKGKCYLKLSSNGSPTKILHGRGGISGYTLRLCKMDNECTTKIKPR

| Ki [1] [nM] | Ki [2] [nM] | SMILES |
| --- | --- | --- |
| 150 | 7.1 | C[C@@H]1CCC[C@H](N2CCC(c3cc(Cl)ccc3-n3ccnn3)=CC2=O)c2cc(ccn2)-c2c(cnn2C2CCC2)NC1=O [Example 54, (9R,13S)-13-{4-[5-chloro-2-(1H-1,2,3-triazol-1-yl)phenyl]-6-oxo-1,2,3,6-tetrahydropyridin-1-yl}-3-cyclobutyl-9-methyl-3,4,7,15-tetraazatricyclo[12.3.1.0^2,6]octadeca-1(18),2(6),4,14,16-pentaen-8-one] |
| 6 | 0.1 | C[C@@H]1CCC[C@H](N2CCC(c3cc(Cl)ccc3-n3cc(Cl)nn3)=CC2=O)c2cc(ccn2)-c2c(cnn2C(F)F)NC1=O [Example 55, (9R,13S)-13-{4-[5-chloro-2-(4-chloro-1H-1,2,3-triazol-1-yl)phenyl]-6-oxo-1,2,3,6-tetrahydropyridin-1-yl}-3-(difluoromethyl)-9-methyl-3,4,7,15-tetraazatricyclo[12.3.1.0^2,6]octadeca-1(18),2(6),4,14,16-pentaen-8-one] |
| 30 | 0.36 | C[C@@H]1CCC[C@H](N2CCC(c3cc(Cl)ccc3-n3cc(Cl)nn3)=CC2=O)c2cc(ccn2)-c2c(cnn2C2CC2(F)F)NC1=O (stereo partly drawn) [Example 56, (9R,13S)-13-{4-[5-chloro-2-(4-chloro-1H-1,2,3-triazol-1-yl)phenyl]-6-oxo-1,2,3,6-tetrahydropyridin-1-yl}-3-(2,2-difluorocyclopropyl)-9-methyl-3,4,7,15-tetraazatricyclo[12.3.1.0^2,6]octadeca-1(18),2(6),4,14,16-pentaen-8-one] |
| 14 | 4 | C[C@@H]1CCC[C@H](N2CCC(c3cc(Cl)ccc3C#N)=CC2=O)c2cc(ccn2)-c2c(cnn2C)NC1=O [Example 57, 4-chloro-2-{1-[(9R,13S)-3,9-dimethyl-8-oxo-3,4,7,15-tetraazatricyclo[12.3.1.0^2,6]octadeca-1(18),2(6),4,14,16-pentaen-13-yl]-6-oxo-1,2,3,6-tetrahydropyridin-4-yl}benzonitrile] |
| 46 | 2.4 | C[C@@H]1CCC[C@H](N2CCC(c3cc(Cl)ccc3-n3cc(Cl)nn3)=CC2=O)c2cc(ccn2)-c2[nH]ncc2NC1=O [Example 58, (9R,13S)-13-{4-[5-chloro-2-(4-chloro-1H-1,2,3-triazol-1-yl)phenyl]-6-oxo-1,2,3,6-tetrahydropyridin-1-yl}-9-methyl-3,4,7,15-tetraazatricyclo[12.3.1.0^2,6]octadeca-1(18),2(6),4,14,16-pentaen-8-one] |
| 4 | 0.1 | C[C@@H]1CCC[C@H](N2CCC(c3cc(Cl)ccc3-n3cc(Cl)nn3)=CC2=O)c2cc(F)cc(c2)-c2c(cnn2C)NC1=O [Example 59, (9R,13S)-13-{4-[5-chloro-2-(4-chloro-1H-1,2,3-triazol-1-yl)phenyl]-6-oxo-1,2,3,6-tetrahydropyridin-1-yl}-16-fluoro-3,9-dimethyl-3,4,7-triazatricyclo[12.3.1.0^2,6]octadeca-1(18),2(6),4,14,16-pentaen-8-one] |
| 22 | 7.2 | C[C@@H]1CCC[C@H](N2CCC(c3c(C(F)(F)F)ccc(Cl)c3F)=CC2=O)c2cc(ccn2)-c2c(cnn2C2CC2)NC1=O [Example 60, (9R,13S)-13-{4-[3-chloro-2-fluoro-6-(trifluoromethyl)phenyl]-6-oxo-1,2,3,6-tetrahydropyridin-1-yl}-3-cyclopropyl-9-methyl-3,4,7,15-tetraazatricyclo[12.3.1.0^2,6]octadeca-1(18),2(6),4,14,16-pentaen-8-one] |
| 66 | 0.51 | C[C@@H]1CCC[C@H](n2ncc(-c3cc(Cl)ccc3-n3cc(C(F)(F)F)nn3)cc2=O)c2cc(ccn2)-c2c(cnn2C)NC1=O [Example 61, (9R,13S)-13-(4-{5-chloro-2-[4-(trifluoromethyl)-1H-1,2,3-triazol-1-yl]phenyl}-6-oxo-1,6-dihydropyridazin-1-yl)-3,9-dimethyl-3,4,7,15-tetraazatricyclo[12.3.1.02,6]octadeca-1(18),2(6),4,14,16-pentaen-8-one trifluoroacetate] |
